We go through one compound from ChEMBL document CHEMBL4118135, “Optimized allosteric inhibition of engineered protein tyrosine phosphatases with an expanded palette of biarsenical small molecules” (Bioorg Med Chem, 2018).

Calls of active or inactive are those of the source. The rule behind the calls is not given here.

This assay concerns the target T1, Tyrosine-protein phosphatase non-receptor type 7 (Homo sapiens) (UniProt P35236).
T1 sequence (whole entry): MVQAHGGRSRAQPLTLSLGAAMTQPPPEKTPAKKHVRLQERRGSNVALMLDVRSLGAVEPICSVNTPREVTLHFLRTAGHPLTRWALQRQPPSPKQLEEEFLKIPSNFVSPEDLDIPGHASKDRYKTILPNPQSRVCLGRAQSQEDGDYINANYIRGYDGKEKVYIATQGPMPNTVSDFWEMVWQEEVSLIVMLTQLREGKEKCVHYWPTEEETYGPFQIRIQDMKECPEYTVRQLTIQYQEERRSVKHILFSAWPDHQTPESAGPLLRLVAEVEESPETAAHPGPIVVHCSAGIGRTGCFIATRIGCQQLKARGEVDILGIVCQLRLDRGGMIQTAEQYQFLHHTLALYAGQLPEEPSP
Briefly: Inhibition of His6-tagged wild type human HePTP catalytic domain overexpressed in Escherichia coli BL21(DE3) cells at 25 uM using pNPP as substrate incubated for 90 mins by quenched phosphatase activity assay.

As to `O=C(O)c1ccccc1-c1c2ccc(=O)c([As]3SCCS3)c-2oc2c([As]3SCCS3)c(O)ccc12`, the inhibition result was “inactive”.
